Experimental data as given in patent US20240425523A1, “Compounds for the Degradation of EGFR Kinase” (Beigene Switzerland GMBH, priority 2023, published 2024).

Legend:
[1] = molecular target: T1, EGFR-L858R/C797S (H1975-clone #8 cells) (Homo sapiens, UniProt P00533, C797S/L858R); assay: Cell degradation of EGFR, HTRF assay, H1975-clone#8 (L858R/C797S) cells; type: cell-based; conditions: 16 h treatment; for DC50: EGFR degradation; for Dmax: maximum percentage of degradation
T1 construct: expressed in transfected cells; host or cells: H1975 (endogenous EGFR knocked out, clone #8)
T1 sequence (P00533 25-1210 C797S/L858R): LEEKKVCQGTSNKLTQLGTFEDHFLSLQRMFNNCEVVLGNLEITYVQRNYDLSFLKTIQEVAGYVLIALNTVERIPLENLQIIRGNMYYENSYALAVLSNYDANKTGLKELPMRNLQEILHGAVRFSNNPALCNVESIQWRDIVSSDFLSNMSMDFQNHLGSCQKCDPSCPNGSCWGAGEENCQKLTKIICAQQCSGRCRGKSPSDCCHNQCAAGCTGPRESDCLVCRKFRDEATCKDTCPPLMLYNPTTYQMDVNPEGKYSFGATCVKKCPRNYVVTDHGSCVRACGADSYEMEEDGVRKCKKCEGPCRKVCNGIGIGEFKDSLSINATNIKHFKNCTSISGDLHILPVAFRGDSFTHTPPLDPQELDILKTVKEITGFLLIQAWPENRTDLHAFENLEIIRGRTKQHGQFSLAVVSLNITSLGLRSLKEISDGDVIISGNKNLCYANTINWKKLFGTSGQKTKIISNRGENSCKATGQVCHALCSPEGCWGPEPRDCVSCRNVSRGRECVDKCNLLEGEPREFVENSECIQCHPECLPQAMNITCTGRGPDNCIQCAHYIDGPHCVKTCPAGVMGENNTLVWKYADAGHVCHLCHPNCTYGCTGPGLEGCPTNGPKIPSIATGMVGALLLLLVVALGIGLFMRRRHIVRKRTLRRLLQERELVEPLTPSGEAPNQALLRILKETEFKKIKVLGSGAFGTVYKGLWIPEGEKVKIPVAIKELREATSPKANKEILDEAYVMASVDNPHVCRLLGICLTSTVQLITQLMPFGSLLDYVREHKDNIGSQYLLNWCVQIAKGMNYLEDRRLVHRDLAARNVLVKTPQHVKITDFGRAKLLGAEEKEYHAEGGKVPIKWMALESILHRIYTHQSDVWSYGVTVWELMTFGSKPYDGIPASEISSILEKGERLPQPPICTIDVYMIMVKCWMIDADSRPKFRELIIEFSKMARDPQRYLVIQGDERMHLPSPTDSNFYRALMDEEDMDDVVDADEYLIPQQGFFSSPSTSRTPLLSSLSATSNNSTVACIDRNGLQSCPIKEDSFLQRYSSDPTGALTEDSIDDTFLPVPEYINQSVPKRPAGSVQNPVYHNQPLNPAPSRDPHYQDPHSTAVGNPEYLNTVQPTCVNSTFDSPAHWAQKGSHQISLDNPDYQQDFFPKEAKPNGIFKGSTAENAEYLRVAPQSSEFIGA
Description: The EGFR over-expressed cells then underwent knockout, in which the EGFR targeting sgRNA was designed to only target the endogenous EGFR copies and preserve the exogenous EGFR copies. Followed by the knockout, the edited H1975 cells were seeded in 96 well plates at the concentration of […], cultured for about 2 weeks to allow single clones formation. The formed clones were screened by DNA sequencing and whole exon sequencing analysis for the desired edition.
(§1) H1975-#8 and BaF3-L858R cells are treated with compounds diluted in 0.1% DMSO cell culture medium on day 2, incubate for 16 h, 37° C., 5% CO2. the final concentration of compounds in all assay is start with 10 uM, 5-fold dilution, total 8 doses were included.
(§2) After 16 h treatment, for H1975-#8 cells, add 100 ul HTRF 1× lysis buffer to each well; for BaF3-L858R cells, add 20 μl 4× lysis buffer to each well; seal the plate and incubate 1 hour at room temperature on a plate shaker; Once the cells are lysed, 16 μL of cell lysate are transferred to a PE 384-well HTRF detection plate; 4 μL of pre-mixed HTRF antibodies are added to each well; Cover the plate with a plate sealer, spin 1000 rpm for 1 min, Incubate overnight at room temperature; Read on BMG PheraStar with HTRF protocol (337 nm-665 nm-620 nm).
(§3) High control=Cell group with added DMSO and without compound, indicating microplate readings without EGFR degradation;
(§4) Dmax is the maximum percentage of inhibition (degradation).
(§5) The IC50 (DC50) value of a compound can be obtained by fitting the following equation
(§6) Y=Bottom+(TOP−Bottom)/(1+((IC50/X)^hillslope))
(§7) Wherein, X and Y are known values, and IC50, Hillslope, Top and Bottom are the parameters obtained by fitting with software. […] The experimental data were fitted by calculating and analyzing with Dotmatics data analysis software.

[2] = molecular target: T2, EGFR L858R (BaF3-L858R cells) (Homo sapiens, UniProt P00533, L858R); assay: Cell degradation of EGFR, HTRF assay, BaF3-L858R cells; type: cell-based; conditions: 16 h treatment; for DC50: EGFR degradation; for Dmax: maximum percentage of degradation
T2 construct: host or cells: BaF3
T2 sequence (P00533 25-1210 L858R): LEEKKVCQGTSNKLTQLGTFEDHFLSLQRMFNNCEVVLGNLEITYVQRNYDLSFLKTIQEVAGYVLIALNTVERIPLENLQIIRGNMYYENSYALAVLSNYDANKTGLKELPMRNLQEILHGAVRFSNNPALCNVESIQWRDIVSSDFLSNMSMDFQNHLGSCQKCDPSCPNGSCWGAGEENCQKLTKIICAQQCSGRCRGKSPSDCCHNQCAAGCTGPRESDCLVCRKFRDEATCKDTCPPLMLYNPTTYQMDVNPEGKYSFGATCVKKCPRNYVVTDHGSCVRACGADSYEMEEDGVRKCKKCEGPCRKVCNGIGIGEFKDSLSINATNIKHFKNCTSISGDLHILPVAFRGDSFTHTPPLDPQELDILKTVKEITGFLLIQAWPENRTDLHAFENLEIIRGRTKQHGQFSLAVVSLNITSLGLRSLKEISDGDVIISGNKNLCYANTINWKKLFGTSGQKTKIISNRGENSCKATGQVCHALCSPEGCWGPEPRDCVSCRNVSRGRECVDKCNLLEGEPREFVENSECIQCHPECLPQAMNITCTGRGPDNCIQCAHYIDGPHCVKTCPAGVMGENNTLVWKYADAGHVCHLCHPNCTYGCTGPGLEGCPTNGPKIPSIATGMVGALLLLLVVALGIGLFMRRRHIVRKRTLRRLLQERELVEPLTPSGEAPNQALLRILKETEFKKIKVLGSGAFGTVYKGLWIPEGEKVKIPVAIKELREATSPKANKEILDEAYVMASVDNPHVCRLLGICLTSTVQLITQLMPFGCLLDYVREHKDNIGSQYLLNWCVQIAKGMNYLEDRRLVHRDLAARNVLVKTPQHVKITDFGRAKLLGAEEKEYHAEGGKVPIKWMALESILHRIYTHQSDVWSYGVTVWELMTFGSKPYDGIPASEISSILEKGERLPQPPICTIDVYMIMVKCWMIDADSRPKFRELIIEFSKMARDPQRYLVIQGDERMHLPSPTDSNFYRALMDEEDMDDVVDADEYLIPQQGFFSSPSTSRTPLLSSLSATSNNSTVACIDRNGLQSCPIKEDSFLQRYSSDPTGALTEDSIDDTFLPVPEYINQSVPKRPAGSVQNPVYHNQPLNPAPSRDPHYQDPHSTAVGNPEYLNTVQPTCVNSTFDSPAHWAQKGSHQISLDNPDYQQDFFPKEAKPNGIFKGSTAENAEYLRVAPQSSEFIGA
Description: BaF3-L858R (abbv. L858R) cell were purchased from Kangyuan Bochuang Biotechnology (Beijing) Co., Ltd.
as §1, §2, §3, §4, §5, §6, §7

Row | SMILES | DC50 [1] [nM] | Dmax [1] [%] | DC50 [2] [nM] | Dmax [2] [%]
1 | COC[C@H]1CN(c2ccc3c(c2)N2C[C@@H]4CC[C@H](COc5c(c(C)nn5C)-c5cc(cc(C)n5)C(=O)/N=C/2N3)C4)CCN1C1CCN(c2c(C)cc(NC3CCC(=O)NC3=O)nc2C)CC1 (stereo partly drawn) [Example 159, 3-((5-(4-((R)-2-(methoxymethyl)-4-((7^1R,7^3S,E)-1^1,1^3,2^6-trimethyl-3-oxo-5^2,5^3-dihydro-1^1H,5^1H-9-oxa-4-aza-5(2,1)-benzo[d]imidazola-2(2,4)-pyridina-1(4,5)-pyrazola-7(1,3)-cyclopentanacyclononaphane-5^6-yl)piperazin-1-yl)piperidin-1-yl)-4,6-dimethylpyridin-2-yl)amino)piperidine-2,6-dione] | 3.75 | 81.3 | 9.56 | 77.5
2 | Cc1cc2cc(n1)-c1cnn(C)c1OC[C@H]1CC[C@H](C1)CN1/C(=N/C2=O)Nc2ccc(N3CCN([C@H]4CCN(c5ccc(C6CCC(=O)NC6=O)nc5C)C[C@H]4F)CC3)cc21 (stereo partly drawn) [Example 15, 3-(5-((3R,4S)-4-(4-((7^1R,7^3S,E)-1^1,2^6-dimethyl-3-oxo-5^2,5^3-dihydro-1^1H,5^1H-9-oxa-4-aza-5(2,1)-benzo[d]imidazola-2(2,4)-pyridina-1(4,5)-pyrazola-7(1,3)-cyclopentanacyclononaphane-5^6-yl)piperazin-1-yl)-3-fluoropiperidin-1-yl)-6-methylpyridin-2-yl)piperidine-2,6-dione] | 11.1 | 85.2 | 7.6 | 94.2
3 | Cc1cc2cc(n1)-c1cnn(C)c1OC[C@H]1CC[C@H](C1)CN1/C(=N/C2=O)Nc2ccc(N3CCN([C@H]4CCN(c5cc(F)c(C6CCC(=O)NC6=O)nc5C)C[C@H]4F)CC3)cc21 (stereo partly drawn) [Example 27, 3-(5-((3R,4S)-4-(4-((7^1R,7^3S,E)-1^1,2^6-dimethyl-3-oxo-5^2,5^3-dihydro-1^1H,5^1H-9-oxa-4-aza-5(2,1)-benzo[d]imidazola-2(2,4)-pyridina-1(4,5)-pyrazola-7(1,3)-cyclopentanacyclononaphane-5^6-yl)piperazin-1-yl)-3-fluoropiperidin-1-yl)-3-fluoro-6-methylpyridin-2-yl)piperidine-2,6-dione] | 3.19 | 90.2 | 1.75 | 91.1
4 | COC[C@@H]1CN(c2ccc3c(c2)N2C[C@@H]4CC[C@H](COc5c(cnn5C)-c5cc(cc(C)n5)C(=O)/N=C/2N3)C4)CCN1C1CCN(c2cc(F)c([C@H]3CCC(=O)NC3=O)c(F)c2)CC1 [Example 9, (R)-3-(4-(4-((S)-4-((7^1R,7^3S,E)-1^1,2^6-dimethyl-3-oxo-5^2,5^3-dihydro-1^1H,5^1H-9-oxa-4-aza-5(2,1)-benzo[d]imidazola-2(2,4)-pyridina-1(4,5)-pyrazola-7(1,3)-cyclopentanacyclononaphane-5^6-yl)-2-(methoxymethyl)piperazin-1-yl)piperidin-1-yl)-2,6-difluorophenyl)piperidine-2,6-dione] | 4.28 | 71.7 | 6.11 | 86.6
5 | Cc1cc2cc(n1)-c1cnn(C)c1OC[C@H]1CC[C@H](C1)CN1/C(=N/C2=O)Nc2ccc(N3CCN([C@@H]4CCN(c5cccc6c5C(C)(C)C(=O)N6C5CCC(=O)NC5=O)C[C@@H]4F)CC3)cc21 (stereo partly drawn) [Example 11, 3-(4-((3S,4R)-4-(4-((7^1R,7^3S,E)-1^1,2^6-dimethyl-3-oxo-5^2,5^3-dihydro-1^1H,5^1H-9-oxa-4-aza-5(2,1)-benzo[d]imidazola-2(2,4)-pyridina-1(4,5)-pyrazola-7(1,3)-cyclopentanacyclononaphane-5^6-yl)piperazin-1-yl)-3-fluoropiperidin-1-yl)-3,3-dimethyl-2-oxoindolin-1-yl)piperidine-2,6-dione] | 3.75 | 61.5 | 0.834 | 84.6

The remaining lines, values ahead:

Row | DC50 [1] [nM] | Dmax [1] [%] | DC50 [2] [nM] | Dmax [2] [%] | SMILES
6 | 0.782 | 83.2 | 2.99 | 99 | Cc1cc2cc(n1)-c1cnn(C)c1OC[C@H]1CC[C@H](C1)CN1/C(=N/C2=O)Nc2ccc(N3CCN([C@@H]4CCN(c5cnc(C6CCC(=O)NC6=O)cc5C)C[C@@H]4F)CC3)cc21 (stereo partly drawn) [Example 21, 3-(5-((3S,4R)-4-(4-((7^1R,7^3S,E)-1^1,2^6-dimethyl-3-oxo-5^2,5^3-dihydro-1^1H,5^1H-9-oxa-4-aza-5(2,1)-benzo[d]imidazola-2(2,4)-pyridina-1(4,5)-pyrazola-7(1,3)-cyclopentanacyclononaphane-5^6-yl)piperazin-1-yl)-3-fluoropiperidin-1-yl)-4-methylpyridin-2-yl)piperidine-2,6-dione]
7 | 2.02 | 63.2 | 1.04 | 87.6 | COC[C@@H]1CN(c2ccc3c(c2)N2C[C@@H]4CC[C@H](COc5c(c(C)nn5C)-c5cc(cc(C)n5)C(=O)/N=C/2N3)C4)CCN1C1CCN(c2c(C)cc(C3CCC(=O)NC3=O)nc2C)CC1 (stereo partly drawn) [Example 147, 3-(5-(4-((S)-2-(methoxymethyl)-4-((7^1R,7^3S,E)-1^1,1^3,2^6-trimethyl-3-oxo-5^2,5^3-dihydro-1^1H,5^1H-9-oxa-4-aza-5(2,1)-benzo[d]imidazola-2(2,4)-pyridina-1(4,5)-pyrazola-7(1,3)-cyclopentanacyclononaphane-5^6-yl)piperazin-1-yl)piperidin-1-yl)-4,6-dimethylpyridin-2-yl)piperidine-2,6-dione]
8 | 3.15 | 66.8 | 4.07 | 73 | Cc1cc2cc(n1)-c1cnn(C)c1OC[C@H]1CC[C@H](C1)CN1/C(=N/C2=O)Nc2ccc(N3CCN(C4CCN(c5cc(F)c([C@H]6CCC(=O)NC6=O)c(F)c5)CC4)CC34COC4)cc21 [Example 10, (R)-3-(4-(4-(5-((7^1R,7^3S,E)-1^1,2^6-dimethyl-3-oxo-5^2,5^3-dihydro-1^1H,5^1H-9-oxa-4-aza-5(2,1)-benzo[d]imidazola-2(2,4)-pyridina-1(4,5)-pyrazola-7(1,3)-cyclopentanacyclononaphane-5^6-yl)-2-oxa-5,8-diazaspiro[3.5]nonan-8-yl)piperidin-1-yl)-2,6-difluorophenyl)piperidine-2,6-dione]
9 | 0.856 | 75.7 | 1.01 | 84.4 | Cc1cc2cc(n1)-c1cnn(C)c1OC[C@H]1CC[C@H](C1)CN1/C(=N/C2=O)Nc2ccc(N3CCN(C4CCN(c5cccc6c5C(C)(C)C(=O)N6C5CCC(=O)NC5=O)CC4)CC3)cc21 (some centres unmarked) [Example 5, 3-(4-(4-(4-((7^1R,7^3S,E)-1^1,2^6-dimethyl-3-oxo-5^2,5^3-dihydro-1^1H,5^1H-9-oxa-4-aza-5(2,1)-benzo[d]imidazola-2(2,4)-pyridina-1(4,5)-pyrazola-7(1,3)-cyclopentanacyclononaphane-5^6-yl)piperazin-1-yl)piperidin-1-yl)-3,3-dimethyl-2-oxoindolin-1-yl)piperidine-2,6-dione]
10 | 0.616 | 90.9 | 0.552 | 84 | Cc1cc2cc(n1)-c1cnn(C)c1OC[C@H]1CC[C@H](C1)CN1/C(=N/C2=O)Nc2ccc(N3CCN([C@@H]4CCN(c5cc(F)c(C6CCC(=O)NC6=O)nc5C)C[C@@H]4F)CC3)cc21 (stereo partly drawn) [Example 14, 3-(5-((3S,4R)-4-(4-((7^1R,7^3S,E)-1^1,2^6-dimethyl-3-oxo-5^2,5^3-dihydro-1^1H,5^1H-9-oxa-4-aza-5(2,1)-benzo[d]imidazola-2(2,4)-pyridina-1(4,5)-pyrazola-7(1,3)-cyclopentanacyclononaphane-5^6-yl)piperazin-1-yl)-3-fluoropiperidin-1-yl)-3-fluoro-6-methylpyridin-2-yl)piperidine-2,6-dione]
11 | 1.38 | 72.6 | 0.879 | 87.2 | Cc1cc2cc(n1)-c1cnn(C)c1OC[C@H]1CC[C@H](C1)CN1/C(=N/C2=O)Nc2ccc(N3CCN(C4CCN(c5ccc(C6CCC(=O)NC6=O)nc5C)CC4)CC3)cc21 (some centres unmarked) [Example 2, 3-(5-(4-(4-((7^1R,7^3S,E)-1^1,2^6-dimethyl-3-oxo-5^2,5^3-dihydro-1^1H,5^1H-9-oxa-4-aza-5(2,1)-benzo[d]imidazola-2(2,4)-pyridina-1(4,5)-pyrazola-7(1,3)-cyclopentanacyclononaphane-5^6-yl)piperazin-1-yl)piperidin-1-yl)-6-methylpyridin-2-yl)piperidine-2,6-dione]
